Laboratory results reported in US9527839B2, “Benzimidazole tetrahydropyran derivatives” (Merck Sharp & Dohme Corp., priority 2012, dated 2016).

Key:
[1] = tested on: ob/ob and db/db mice; conditions: following 8 weeks of administration; cited from earlier work
[2] = target: recombinant human AMPK complex 1 (containing α1β1γ1) (Homo sapiens (Human), UniProt Q13131+Q9Y478); assay: In vitro AMPK activation assay (AMPKSAMSF), complex 1; assay type: biochemical; conditions: recombinant human AMPK complex 1 (α1β1γ1); for % Maximum AMP Activation of human AMPK Complex 1: 10-point titration
recombinant human AMPK complex 1 (containing α1β1γ1), sequence (Q13131 whole entry): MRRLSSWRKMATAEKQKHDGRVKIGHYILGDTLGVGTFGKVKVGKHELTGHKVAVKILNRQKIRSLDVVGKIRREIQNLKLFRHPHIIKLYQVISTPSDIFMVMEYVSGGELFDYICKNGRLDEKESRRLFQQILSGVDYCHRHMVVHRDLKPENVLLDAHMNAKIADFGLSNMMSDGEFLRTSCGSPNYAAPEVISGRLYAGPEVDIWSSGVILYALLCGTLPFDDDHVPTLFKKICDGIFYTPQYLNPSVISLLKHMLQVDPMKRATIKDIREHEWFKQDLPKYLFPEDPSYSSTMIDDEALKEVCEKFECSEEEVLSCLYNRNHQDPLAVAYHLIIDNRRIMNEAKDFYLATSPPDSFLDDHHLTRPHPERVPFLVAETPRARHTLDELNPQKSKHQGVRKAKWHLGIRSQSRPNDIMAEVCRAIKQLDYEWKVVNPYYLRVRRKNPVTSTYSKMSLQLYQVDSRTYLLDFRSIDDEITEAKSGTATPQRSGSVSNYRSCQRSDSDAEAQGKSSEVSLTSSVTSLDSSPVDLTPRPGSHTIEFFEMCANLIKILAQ
recombinant human AMPK complex 1 (containing α1β1γ1), sequence (Q9Y478 whole entry): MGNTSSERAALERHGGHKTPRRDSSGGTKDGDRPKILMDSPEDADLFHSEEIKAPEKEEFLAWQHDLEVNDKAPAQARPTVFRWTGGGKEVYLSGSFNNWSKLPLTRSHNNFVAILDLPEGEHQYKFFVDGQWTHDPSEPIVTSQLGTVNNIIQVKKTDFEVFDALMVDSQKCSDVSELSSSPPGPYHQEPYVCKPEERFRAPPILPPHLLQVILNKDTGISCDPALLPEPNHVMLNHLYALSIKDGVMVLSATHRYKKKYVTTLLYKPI
recombinant human AMPK complex 1 (containing α1β1γ1), sequence (P54619 whole entry partner): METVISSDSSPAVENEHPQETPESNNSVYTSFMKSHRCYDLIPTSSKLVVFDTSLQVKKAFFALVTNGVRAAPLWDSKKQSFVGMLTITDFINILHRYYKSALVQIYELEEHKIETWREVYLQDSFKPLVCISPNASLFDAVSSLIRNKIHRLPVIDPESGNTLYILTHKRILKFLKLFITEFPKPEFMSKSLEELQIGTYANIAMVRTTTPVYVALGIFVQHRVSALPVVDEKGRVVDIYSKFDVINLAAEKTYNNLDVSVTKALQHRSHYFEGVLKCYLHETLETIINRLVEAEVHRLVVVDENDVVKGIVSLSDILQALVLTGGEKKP
Method: (§1) The recombinant human AMPK complex 1 (containing α1β1γ1) or AMPK complex 7 (containing α2β1γ1) was obtained from baculovirus expression system. Recombinant viruses were generated by cotransfection of AMPK/pBacPak9 clones with Baculogold baculovirus DNA (Pharmingen) in spodoptera frugiperda 21 cells according to the manufacturer's instructions. Each round of virus amplification was performed for 5 days in Grace's medium containing 10% serum. Virus that had been subjected to three rounds of amplification was used for all protein production procedures. To express the AMPK complex, sf21 cells were adapted to serum free medium (SF900 II, Invitrogen) by sequential dilution from serum containing stocks into SF900II medium and maintained in shaker flasks at 90 rpm at 27° C. The recombinant AMPK enzyme complex was produced by triple infection, one recombinant virus for each of the subunits, in sf21 cells under serum free conditions. Cells were infected in log phase, 1×10^6 cells/ml, at a multiplicity of infection of 5. Cells were harvested by centrifugation at 10,000×g for 15 minutes after 72 hours of infection with viruses. The insect cell pellet from 2 liters of culture was resuspended in 50 ml lysis buffer (20 mM Tris-HCl, 50 mM NaCl, 50 mM NaF, 30 mM Na PPi, 0.25 M sucrose, 10 mM ZnCl2, 2 mM DTT, 0.4 mg/ml digitonin) and subjected to two cycles of freeze-thaw lysis in a dry-ice ethanol bath. Insoluble material was removed by centrifugation at 10,000×g and the supernatant was fractionated with use of polyethylene glycol (PEG). The protein fraction precipitating between 2.5 and 6% PEG was used for further purification using a Blue-Sepharose step (Zhou et al, J. Clin. Invest. 108, 1167-1174, 2001).
(§2) The in vitro AMPK activation assay is performed in a volume of 30 μl in a 384-well plate. Enzyme reactions were assembled in the microtiter plate by adding 15 μl of 2X enzyme in assay buffer (20 mM HEPES, pH 7.3, 5 mM MgCl2, 3 mM DTT, 0.01% Brij 35 and CamK Kinase, to activate AMPK) to wells which contained either DMSO or compound. The reaction was initiated with the addition of 15 μl 2× substrate mixture containing 200 μM ATP, and 3.0 μM fluorescently labeled SAMS (5-FAM-HMRSAMSGLHLVKRR-COOH) in assay buffer. After 45-minute incubation at 25° C., the reaction was stopped by the addition of 70 μl stop buffer (100 mM HEPES, pH 7.3, 40 mM EDTA, 0.015% Brij 35). Phosphorylated 5-FAM SAMS product is assessed using a Caliper EZ Reader LabChip microfluidics reader. Product conversion is determined by calculating the peak heights of the substrate and product and reporting the product/(product+substrate) peak ratio. The 10-point titration data were expressed as % maximum AMP activation. The results were plotted using 4 parameter fit and the inflection point reflecting 50% of the maximum activation was reported as the EC50.

[3] = target: recombinant human AMPK complex 7 (containing α2β1γ1) (Homo sapiens (Human), UniProt P54646+Q9Y478); assay: In vitro AMPK activation assay (AMPKSAMSF), complex 7; assay type: biochemical; conditions: recombinant human AMPK complex 7 (α2β1γ1); for Emax: 10-point titration, read-out: % Maximum AMP Activation of human AMPK Complex 7
recombinant human AMPK complex 7 (containing α2β1γ1), sequence (P54646 whole entry): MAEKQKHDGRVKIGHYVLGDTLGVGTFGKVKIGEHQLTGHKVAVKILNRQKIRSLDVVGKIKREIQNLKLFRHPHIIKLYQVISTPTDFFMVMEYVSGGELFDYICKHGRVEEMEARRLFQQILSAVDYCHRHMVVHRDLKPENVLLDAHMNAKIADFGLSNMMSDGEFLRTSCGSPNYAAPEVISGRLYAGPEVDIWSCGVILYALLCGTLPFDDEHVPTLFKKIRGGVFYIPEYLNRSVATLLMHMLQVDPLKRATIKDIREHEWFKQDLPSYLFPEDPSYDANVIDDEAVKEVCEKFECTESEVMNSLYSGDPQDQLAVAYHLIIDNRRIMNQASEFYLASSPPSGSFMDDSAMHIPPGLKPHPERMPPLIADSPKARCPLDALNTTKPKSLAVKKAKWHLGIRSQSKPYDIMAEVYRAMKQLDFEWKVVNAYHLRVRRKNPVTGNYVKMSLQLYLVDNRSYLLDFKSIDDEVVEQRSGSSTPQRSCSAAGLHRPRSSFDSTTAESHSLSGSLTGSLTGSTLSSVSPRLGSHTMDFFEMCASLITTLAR
recombinant human AMPK complex 7 (containing α2β1γ1), sequence (Q9Y478 whole entry): as the sequence (Q9Y478 whole entry) above
recombinant human AMPK complex 7 (containing α2β1γ1), sequence (P54619 whole entry partner): as the sequence (P54619 whole entry partner) above
Method: as §1, §2

Row | SMILES | EC50 [3] [nM] | Emax [3] [%] | blood glucose reduction [1] [%] | EC50 [2] [nM] | % Maximum AMP Activation of human AMPK Complex 1 [2] [%]
1 | NC(=O)c1ncn([C@@H]2O[C@H](CO)[C@@H](O)[C@H]2O)c1N [AICAR] | – | – | 35 | – | –
2 | CS(=O)(=O)Cc1ccc(-c2ccc(-c3cc4nc(O[C@H]5CO[C@H](CO)[C@@H](O)C5)[nH]c4cc3Cl)cc2)cc1 [Example 2] | – | – | – | 36 | 490
3 | OC[C@H]1OC[C@H](Oc2nc3cc(-c4ccc(-c5ccc(-c6nccc(O)n6)cc5)cc4)c(Cl)cc3[nH]2)C[C@@H]1O [Example 6] | 7 | 373 | – | – | –
4 | CC(CO)(CO)c1ccc(-c2ccc(-c3cc4nc(O[C@H]5CO[C@H](CO)[C@@H](O)C5)[nH]c4cc3Cl)cc2)cc1 [Example 7] | 6 | 333 | – | – | –
5 | OC[C@H]1OC[C@H](Oc2nc3cc(-c4ccc(-c5ccc(C6CNCCO6)cc5)cc4)c(Cl)cc3[nH]2)C[C@@H]1O (stereo partly drawn) [Example 8] | 12 | 348 | – | – | –
6 | N=c1nc(N)[nH]n1-c1ccc(-c2ccc(-c3cc4nc(O[C@H]5CO[C@H](CO)[C@@H](O)C5)[nH]c4cc3Cl)cc2)cc1 [Example 16] | 7 | 373 | – | – | –
7 | O=S(=O)(c1ccc(-c2ccc(-c3cc4nc(O[C@H]5CO[C@H](CO)[C@@H](O)C5)[nH]c4cc3Cl)cc2)cc1)C1CCNCC1 [Example 18] | 14 | 364 | – | – | –
8 | O=C1NCCC1c1ccc(-c2ccc(-c3cc4nc(O[C@H]5CO[C@H](CO)[C@@H](O)C5)[nH]c4cc3Cl)cc2)cc1 (stereo partly drawn) [Example 19] | 15 | 392 | – | – | –
9 | OC[C@H]1OC[C@H](Oc2nc3cc(-c4ccc(-c5ccc(-n6cncn6)cc5)cc4)c(Cl)cc3[nH]2)C[C@@H]1O [Example 21] | 9 | 400 | – | – | –
10 | OC[C@H]1OC[C@H](Oc2nc3cc(-c4ccc(-c5ccc(-c6nnn[nH]6)cc5)cc4)c(Cl)cc3[nH]2)C[C@@H]1O [Example 23] | 18 | 387 | – | – | –
11 | CC(C)(O)Cc1cnn(-c2ccc(-c3ccc(-c4cc5nc(O[C@H]6CO[C@H](CO)[C@@H](O)C6)[nH]c5cc4Cl)cc3)cc2)c1 [Example 24] | 18 | 360 | – | – | –
12 | CS(=O)(=O)c1ccc(-c2ccc(-c3c(F)cc4[nH]c(O[C@H]5CO[C@H](CO)[C@@H](O)C5)nc4c3F)cc2)cc1 [Example 26] | – | – | – | 7 | 558
13 | CC(C)(O)c1ccc(-c2ccc(-c3c(F)cc4[nH]c(O[C@H]5CO[C@H](CO)[C@@H](O)C5)nc4c3F)cc2)cc1 [Example 29] | – | – | – | 26 | 492
14 | OC[C@H]1OC[C@H](Oc2nc3c(F)c(-c4ccc(-c5ccc(-c6nccc(O)n6)cc5)cc4)c(F)cc3[nH]2)C[C@@H]1O [Example 35] | 3 | 370 | – | – | –
15 | OC[C@H]1OC[C@H](Oc2nc3c(F)c(-c4ccc(-c5ccc(C6CNCCO6)cc5)cc4)c(F)cc3[nH]2)C[C@@H]1O (stereo partly drawn) [Example 36] | 3 | 327 | – | – | –
16 | OC[C@H]1OC[C@H](Oc2nc3c(F)c(-c4ccc(-c5ccc(-c6ncco6)cc5)cc4)c(F)cc3[nH]2)C[C@@H]1O [Example 38] | 17 | 266 | – | – | –
17 | OC[C@H]1OC[C@H](Oc2nc3c(F)c(-c4ccc(-c5ccc(-c6nccs6)cc5)cc4)c(F)cc3[nH]2)C[C@@H]1O [Example 39] | 13 | 192 | – | – | –
18 | N=c1nc(N)[nH]n1-c1ccc(-c2ccc(-c3c(F)cc4[nH]c(O[C@H]5CO[C@H](CO)[C@@H](O)C5)nc4c3F)cc2)cc1 [Example 40] | 5 | 387 | – | – | –

The next lines start with results.

Row | EC50 [3] [nM] | Emax [3] [%] | SMILES | blood glucose reduction [1] [%] | EC50 [2] [nM] | % Maximum AMP Activation of human AMPK Complex 1 [2] [%]
19 | 8 | 401 | O=S(=O)(c1ccc(-c2ccc(-c3c(F)cc4[nH]c(O[C@H]5CO[C@H](CO)[C@@H](O)C5)nc4c3F)cc2)cc1)C1CCNCC1 [Example 42] | – | – | –
20 | 4 | 398 | O=C1NCCC1c1ccc(-c2ccc(-c3c(F)cc4[nH]c(O[C@H]5CO[C@H](CO)[C@@H](O)C5)nc4c3F)cc2)cc1 (stereo partly drawn) [Example 43] | – | – | –
21 | 11 | 426 | O=C(O)CCCc1ccc(-c2ccc(-c3c(F)cc4[nH]c(O[C@H]5CO[C@H](CO)[C@@H](O)C5)nc4c3F)cc2)cc1 [Example 44] | – | – | –
22 | 2 | 391 | OC[C@H]1OC[C@H](Oc2nc3c(F)c(-c4ccc(-c5ccc(-n6cncn6)cc5)cc4)c(F)cc3[nH]2)C[C@@H]1O [Example 45] | – | – | –
23 | 7 | 328 | OC[C@H]1OC[C@H](Oc2nc3c(F)c(-c4ccc(-c5ccc(-c6nnc(O)o6)cc5)cc4)c(F)cc3[nH]2)C[C@@H]1O [Example 47] | – | – | –
24 | 2 | 414 | CNC(=O)c1ccc(-c2ccc(-c3c(F)cc4[nH]c(O[C@H]5CO[C@H](CO)[C@@H](O)C5)nc4c3F)cc2)cc1 [Example 48] | – | – | –
25 | 9 | 419 | OC[C@H]1OC[C@H](Oc2nc3c(F)c(-c4ccc(-c5ccc(-c6nnn[nH]6)cc5)cc4)c(F)cc3[nH]2)C[C@@H]1O [Example 49] | – | – | –
26 | 7 | 403 | CC(C)(O)Cc1cnn(-c2ccc(-c3ccc(-c4c(F)cc5[nH]c(O[C@H]6CO[C@H](CO)[C@@H](O)C6)nc5c4F)cc3)cc2)c1 [Example 50] | – | – | –
